This assay relates to HEK-293T cytotoxicity, luminescence. Description: cytotoxicity in HEK-293T cells, dose response, cytotoxicity control for BCR NF-kB inhibitor project, luminescence, B-cell screen hits (AID 489021).

Calls of active or inactive are those of the source. The rule behind the calls is not given here.

One may read the IC50 as the point on the concentration scale where inhibition reaches its midpoint.

Regarding `COc1ccc(/C=C\C(=O)O[C@@H]2C(O)C(O[C@@H]3OC(C)[C@H](O[C@@H]4OCC(O[C@H]5O[C@H](CO)[C@@H](O)C(O)C5O)C(O)C4O)C(O)C3O)[C@H](OC(=O)[C@]34CCC(C)(C)C[C@@H]3C3=CCC5[C@@]6(C)CC(O)C(O[C@@H]7OC(CO)C(O)[C@H](O)[C@H]7O)[C@@](C)(C(=O)O)C6CC[C@@]5(C)[C@]3(CO)CC4)O[C@H]2C)cc1` (stereo partly specified), the IC50 was 60.7 µM (inactive).

The values above are taken from PubChem BioAssay AID489021 (Sanford-Burnham Center for Chemical Genomics, 2010).
